Laboratory results: PubChem BioAssay (NCI)
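Exposure lasted 48 hours, with cells grown in 96-well plates and compounds tested at five concentrations. GI50 = concentration required for 50% inhibition of growth. Definition used: TGI = concentration required for complete inhibition of growth.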

Legend:
Experiment in all cases: NCI anticancer screen, dose series, 48 h; in the data active = GI50 below about 0.43 µM; inactive = the rest
NCI-H23 lung = test system: NCI-H23 lung
OVCAR-8 ovarian = test system: OVCAR-8 ovarian
SK-MEL-28 melanoma = test system: SK-MEL-28 melanoma
SK-MEL-5 melanoma = test system: SK-MEL-5 melanoma
UACC-257 melanoma = test system: UACC-257 melanoma
NCI-H460 lung = test system: NCI-H460 lung
SF-539 CNS = test system: SF-539 CNS
SK-MEL-2 melanoma = test system: SK-MEL-2 melanoma
HS 578T breast = test system: HS 578T breast
MDA-MB-435 = test system: MDA-MB-435

C=CCn1c(=S)sc2c(C(=O)OCC)c3c(C)cc(C)cn3c2c1=O
> 100 µM: TGI (NCI-H23 lung) | TGI (OVCAR-8 ovarian) | TGI (SK-MEL-28 melanoma) | TGI (SK-MEL-5 melanoma) | TGI (UACC-257 melanoma) | TGI (NCI-H460 lung) | TGI (SF-539 CNS) | TGI (SK-MEL-2 melanoma)

Cc1ccc(S(=O)(=O)N/N=C(\c2nc3ccc(Cl)cc3[nH]c2=O)C(O)c2ccco2)cc1 (configuration not stated)
> 100 µM: TGI (NCI-H23 lung) | TGI (SK-MEL-28 melanoma) | TGI (SK-MEL-5 melanoma) | TGI (UACC-257 melanoma) | TGI (NCI-H460 lung) | TGI (SF-539 CNS) | TGI (SK-MEL-2 melanoma)

O=c1cc(-c2ccccn2)[nH]c2cccc(F)c12
> 100 µM: TGI (NCI-H23 lung) | TGI (OVCAR-8 ovarian) | TGI (SK-MEL-28 melanoma) | TGI (SK-MEL-5 melanoma) | TGI (UACC-257 melanoma) | TGI (NCI-H460 lung) | TGI (SF-539 CNS)

CO/N=C(\COc1ccc2c(=O)c3ccccc3oc2c1)c1ccccc1
inactive: GI50 (NCI-H23 lung) > 100 µM | GI50 (OVCAR-8 ovarian) 30.4 µM | GI50 (HS 578T breast) 30.6 µM | GI50 (SK-MEL-28 melanoma) > 100 µM | GI50 (SK-MEL-5 melanoma) 38.1 µM | GI50 (UACC-257 melanoma) 39.1 µM | GI50 (NCI-H460 lung) 38.9 µM | GI50 (MDA-MB-435) 86.7 µM | GI50 (SF-539 CNS) 19 µM
> 100 µM: TGI (NCI-H23 lung) | TGI (SK-MEL-28 melanoma) | TGI (SK-MEL-5 melanoma) | TGI (UACC-257 melanoma) | TGI (NCI-H460 lung) | TGI (MDA-MB-435)
89.8 µM: TGI (HS 578T breast)
97.2 µM: TGI (OVCAR-8 ovarian)
50.6 µM: TGI (SF-539 CNS)

CCCn1c(SCCSc2c3ccccc3c(-c3nc(F)nc(F)n3)n2CCC)c2ccccc2c1-c1nc(F)nc(F)n1
> 100 µM: TGI (NCI-H23 lung) | TGI (OVCAR-8 ovarian) | TGI (SK-MEL-28 melanoma) | TGI (UACC-257 melanoma) | TGI (NCI-H460 lung) | TGI (SF-539 CNS) | TGI (SK-MEL-2 melanoma)

Cc1cn2c(/C=C3/C(=O)Nc4c3ccc3ccccc43)c(C(F)(F)F)nc2s1
inactive: GI50 (NCI-H23 lung) 2.09 µM | GI50 (OVCAR-8 ovarian) 4.65 µM | GI50 (HS 578T breast) 3 µM | GI50 (SK-MEL-28 melanoma) 2.7 µM | GI50 (SK-MEL-5 melanoma) 1.03 µM | GI50 (UACC-257 melanoma) > 100 µM | GI50 (NCI-H460 lung) 0.501 µM | GI50 (SF-539 CNS) 1.14 µM | GI50 (SK-MEL-2 melanoma) 1.06 µM
5.07 µM: TGI (SF-539 CNS)
25.3 µM: TGI (NCI-H460 lung)
> 100 µM: TGI (NCI-H23 lung) | TGI (OVCAR-8 ovarian) | TGI (SK-MEL-28 melanoma) | TGI (SK-MEL-5 melanoma) | TGI (UACC-257 melanoma) | TGI (SK-MEL-2 melanoma)
78.7 µM: TGI (HS 578T breast)

Cc1c(C(=O)C/C(=N/NC(=O)c2ccccc2)C(=O)Nc2ccc(Cl)cc2)[n+](=O)c2ccccc2n1[O-]
92.6 µM: TGI (NCI-H23 lung)
> 100 µM: TGI (OVCAR-8 ovarian) | TGI (SK-MEL-28 melanoma) | TGI (SK-MEL-5 melanoma) | TGI (UACC-257 melanoma) | TGI (NCI-H460 lung) | TGI (SF-539 CNS) | TGI (SK-MEL-2 melanoma)

O=C(/C=C(\O)C(=O)O)/C=C(\O)c1ccccc1
> 100 µM: TGI (NCI-H23 lung) | TGI (OVCAR-8 ovarian) | TGI (UACC-257 melanoma) | TGI (NCI-H460 lung) | TGI (SK-MEL-2 melanoma)
inactive: GI50 (NCI-H23 lung) > 100 µM | GI50 (SK-MEL-28 melanoma) > 1 µM | GI50 (SK-MEL-5 melanoma) > 1 µM | GI50 (UACC-257 melanoma) > 1 µM | GI50 (NCI-H460 lung) > 1 µM | GI50 (SK-MEL-2 melanoma) > 1 µM
> 1 µM: TGI (SK-MEL-28 melanoma) | TGI (SK-MEL-5 melanoma) | TGI (SF-539 CNS)
< 1 µM: GI50 (SF-539 CNS)

Cc1cc2c(c(C(N)=O)c1C)-c1cccc(F)c1C2=O
> 100 µM: TGI (NCI-H23 lung) | TGI (OVCAR-8 ovarian) | TGI (SK-MEL-28 melanoma) | TGI (SK-MEL-5 melanoma) | TGI (UACC-257 melanoma) | TGI (NCI-H460 lung) | TGI (SF-539 CNS) | TGI (SK-MEL-2 melanoma)

N#C/C(=C1\SCC(=O)N1c1ccccc1)c1nc2ccccc2[nH]1
> 100 µM: TGI (NCI-H23 lung) | TGI (OVCAR-8 ovarian) | TGI (SK-MEL-28 melanoma) | TGI (SK-MEL-5 melanoma) | TGI (UACC-257 melanoma) | TGI (NCI-H460 lung) | TGI (SF-539 CNS) | TGI (SK-MEL-2 melanoma)

CCOC(=O)NC(=O)c1cn(CCN2CCN(C(=O)CNC(=O)CNC(=O)Cn3cc(C(=O)NC(=O)OCC)c(=O)[nH]c3=O)CC2)c(=O)[nH]c1=O
> 100 µM: TGI (NCI-H23 lung) | TGI (OVCAR-8 ovarian) | TGI (SK-MEL-28 melanoma) | TGI (UACC-257 melanoma) | TGI (NCI-H460 lung) | TGI (SF-539 CNS) | TGI (SK-MEL-2 melanoma)

COC(=O)CCC(NC(=S)N/N=C(\C)c1ccc[nH]1)C(=O)OC (configuration not stated)
> 100 µM: TGI (NCI-H23 lung) | TGI (OVCAR-8 ovarian) | TGI (SK-MEL-28 melanoma) | TGI (SK-MEL-5 melanoma) | TGI (UACC-257 melanoma) | TGI (NCI-H460 lung) | TGI (SF-539 CNS) | TGI (SK-MEL-2 melanoma)

[N-]=[N+]=NC(c1cn(C2CC(O)C(CO)O2)c(=O)[nH]c1=O)C(Cl)Br (configuration not stated)
> 100 µM: TGI (NCI-H23 lung) | TGI (OVCAR-8 ovarian) | TGI (SK-MEL-28 melanoma) | TGI (SK-MEL-5 melanoma) | TGI (NCI-H460 lung) | TGI (SF-539 CNS) | TGI (SK-MEL-2 melanoma)

C=CC(=O)N1C/C(=C\c2ccc(Cl)c(Cl)c2)C(=O)/C(=C/c2ccc(Cl)c(Cl)c2)C1
0.367 µM: TGI (SF-539 CNS)
0.438 µM: TGI (NCI-H23 lung)
1.5 µM: TGI (SK-MEL-28 melanoma)
1.57 µM: TGI (UACC-257 melanoma)
0.298 µM: TGI (NCI-H460 lung)
0.274 µM: TGI (OVCAR-8 ovarian)
1.74 µM: TGI (SK-MEL-5 melanoma)
1.43 µM: TGI (SK-MEL-2 melanoma)

COc1ccc2c(c1)[n+](=O)c(C(=O)c1cccs1)c(C(F)(F)F)n2[O-]
5.91 µM: TGI (SK-MEL-5 melanoma)
42 µM: TGI (UACC-257 melanoma)
16.2 µM: TGI (SF-539 CNS)
13.8 µM: TGI (NCI-H460 lung)
25.8 µM: TGI (NCI-H23 lung)
inactive: GI50 (NCI-H23 lung) 2.88 µM | GI50 (OVCAR-8 ovarian) 2.79 µM | GI50 (SK-MEL-28 melanoma) 16.3 µM | GI50 (SK-MEL-5 melanoma) 1.23 µM | GI50 (UACC-257 melanoma) 8.66 µM | GI50 (NCI-H460 lung) 1.68 µM | GI50 (MDA-MB-435) 12.2 µM | GI50 (SF-539 CNS) 5.1 µM | GI50 (SK-MEL-2 melanoma) 10.8 µM
> 50 µM: TGI (OVCAR-8 ovarian) | TGI (SK-MEL-28 melanoma) | TGI (MDA-MB-435) | TGI (SK-MEL-2 melanoma)

Oc1c(C(Nc2ccccc2Br)c2ccccc2)ccc2cccnc12 (configuration not stated)
26.9 µM: TGI (NCI-H23 lung)
70.2 µM: TGI (MDA-MB-435)
13.5 µM: TGI (SF-539 CNS)
8.48 µM: TGI (UACC-257 melanoma)
14.9 µM: TGI (SK-MEL-28 melanoma)
11.7 µM: TGI (NCI-H460 lung)
> 100 µM: TGI (OVCAR-8 ovarian) | TGI (HS 578T breast)
7.38 µM: TGI (SK-MEL-5 melanoma)
inactive: GI50 (NCI-H23 lung) 3.96 µM | GI50 (OVCAR-8 ovarian) 2.11 µM | GI50 (HS 578T breast) 10.7 µM | GI50 (SK-MEL-28 melanoma) 2.46 µM | GI50 (SK-MEL-5 melanoma) 1.72 µM | GI50 (UACC-257 melanoma) 1.88 µM | GI50 (NCI-H460 lung) 0.722 µM | GI50 (MDA-MB-435) 4 µM | GI50 (SF-539 CNS) 3.65 µM

CC(C)C1CO[C@]2(C)CCC(=O)N12 (some centres not stated)
> 100 µM: TGI (NCI-H23 lung) | TGI (OVCAR-8 ovarian) | TGI (SK-MEL-28 melanoma) | TGI (SK-MEL-5 melanoma) | TGI (UACC-257 melanoma) | TGI (NCI-H460 lung) | TGI (SF-539 CNS) | TGI (SK-MEL-2 melanoma)

O=S(=O)(NC1CCCCC1)c1ccc2c(c1)OCCOCCOCCOCCO2
> 100 µM: TGI (NCI-H23 lung) | TGI (OVCAR-8 ovarian) | TGI (HS 578T breast) | TGI (SK-MEL-28 melanoma) | TGI (SK-MEL-5 melanoma) | TGI (UACC-257 melanoma) | TGI (NCI-H460 lung) | TGI (MDA-MB-435) | TGI (SF-539 CNS)
